Values of other authors as cited in patent publication US9221029B2, “Automatic system for synthesizing 123I-MIBG and automatic device for synthesizing and dispensing 123I-MIBG comprising the same” (Institute of Nuclear Energy Research Atomic Energy Council, …, priority 2013, dated 2015).
Where two headings read alike, the source gives them in different places.

Tests used:
[1] = despite the use of oral potassium iodide (KI)
neuroblastoma [2] = conditions: in vivo
[3] = ranging from 15 minutes to 48 hours
[4] = tested on: tumors (neuroblastoma cells); conditions: after false-positive and false-negative imaging results are ruled out
[5] = used for diagnosis
neuroblast = conditions: after intravenous injection
neuroblastoma [6] = conditions: 21 neuroblastoma patients; especially at bones

N=C(N)NCc1cccc([131I])c1 [^131I-MIBG]
excreted out of the body through urine (24 hours after injection): 57%
excreted out of the body through urine (48 hours after injection): 70%
still exists in the blood (one hour after injection, neuroblastoma patients): ≤ 10%
side effects of therapy [1]: hypothyroidism still occurs
treatment effective rate on neuroblastoma (neuroblastoma [2]): 30-40%
saliva-to-plasma ratio [3]: greater than 1.0

N=C(N)NCc1cccc([123I])c1 [^123I-MIBG, iodine-123 meta-iodobenzylguanidine]
specifically bound to tumors [4]: ~100%
patients with accumulated ^123I-MIBG in salivary glands [5]: 92-100%

N=C(N)NCc1cccc(I)c1 [MIBG, meta-iodobenzylguanidine]
gathered in neuroblast (neuroblast): 90%
sensitivity of imaging compared with FDG-PET (neuroblastoma [6]): higher sensitivity
